Assay [1] concerns SH-SY-5Y human neuroblastoma cells. Briefly: PHF-1 immunoreactivity (phospho-tau) in differentiated SH-SY-5Y cells with or without folate. Format: cell-based. On the procedure: Cultured cells were used to test individual agents and formulations. […] For immunocytochemistry to detect paired helical filament-1 (PHF-1) staining (as an index of tau phosphorylation), cells were fixed for 15 minutes with 4% paraformaldehyde in 0.1 M phosphate buffer and immunostained by sequential reaction with a mouse monoclonal PHF-1 antibody that was raised against tau from paired helical filaments isolated from the brains of Alzheimer disease patients. Incubation with PHF-1 antibody was followed by rhodamine conjugated goat anti-mouse IgG and visualization using methods known in the art. […] Cortical neurons were prepared from 12 day embryonic C57/B16 day old mice using known methods. Both the SH-SY-5Y cultures and the cortical neurons were processed for PHF-1 (paired helical filament 1) immunofluorescence using known methods ([…] et al., 1999 supra). Control cells cultured in the continued presence of normal folate levels were also processed. Phospho-tau was also examined using immunoblot analysis. […] The homogenates were sedimented at 13,000×g for 15 minutes and the resulting supernatant was electrophoresed, blotted, and the blot stained for PHF-1 using known methods.

Assay [2] relates to murine cortical neurons. Briefly: PHF-1 immunofluorescence in murine cortical neurons with or without folate. Format: cell-based, mice. As to conditions: folate deficiency, two hours. As for the experimental part: For immunocytochemistry to detect paired helical filament-1 (PHF-1) staining (as an index of tau phosphorylation), cells were fixed for 15 minutes with 4% paraformaldehyde in 0.1 M phosphate buffer and immunostained by sequential reaction with a mouse monoclonal PHF-1 antibody that was raised against tau from paired helical filaments isolated from the brains of Alzheimer disease patients. Incubation with PHF-1 antibody was followed by rhodamine conjugated goat anti-mouse IgG and visualization using methods known in the art. […] In these experiments, SH-SY-5Y cells were cultured in folate-deficient Dulbecco's Modified Essential Medium (DMEM; Sigma) in the absence of serum for two hours. Cortical neurons were prepared from 12 day embryonic C57/B16 day old mice using known methods. The cortical neurons were cultured for 3 days in neurobasal medium with B27 supplements ([…] et al., 1999, J. Biol. Chem., 274:30322-30327). […] Both the SH-SY-5Y cultures and the cortical neurons were processed for PHF-1 (paired helical filament 1) immunofluorescence using known methods ([…] et al., 1999 supra). Control cells cultured in the continued presence of normal folate levels were also processed. Phospho-tau was also examined using immunoblot analysis. […]

Assay [3] has as its system SH-SY-5Y cells. In words: HPLC analysis of glutathione and thiols in SH-SY-5Y cells. It is filed as cell-based, human. As for the experimental part:
Glutathione levels were quantified in homogenates of SH-SY-5Y cells. Cultures were rinsed twice with Tris-buffered saline (TBS), scraped from the plate in a small volume of TBS and homogenized on ice. Medium was also utilized for analysis of HCY along with cellular lysates, since HCY is normally exported from cells. Homogenates (100 μl) were reduced by mixing with 50 μl of 100 μM N-acetylcysteine or with 30 μl of 30 μM cystamine (as an internal standard) and 10 μl of tri-carboxyethylphosphine (100 mg/ml in 0.05 M HCl). Samples were vortexed, incubated at room temperature for 30 minutes, then centrifuged at 10,000×g for 10 minutes. 80 μl of the resulting supernatant were combined with 160 μl of 2 M boric acid/4 mM EDTA (pH 10.5), followed by 80 μl of 1.0 mg/ml SBDF [7-fluorobenzo-2-oxa-1,3-diazole-4-sulfonate] in boric acid/EDTA buffer). Samples were mixed, incubated for 60 minutes at 60° C., equilibrated to reach temperature, and 50 μl of the sample was then injected into a Hewlett Packard model 1090 HPLC, which is used with a 1046A fluorescence detector and a Hewlett Packard 4.6×60 mm high-speed analytical column packed with 3 μM ODs (C18) Hypersil silica. The mobile phase consisted of methanol/0.2 M acetate buffer pH 4.0 (2/98 by volume). Glutathione concentrations were then determined by comparison of peak area ratios of glutathione to the internal standard N-acetylcysteine in the sample compared to peak areas obtained for a glutathione standard curve. Samples were derived from 3-4 normal and 3-4 ApoE−/− mice for each dietary condition, from ≧2 independent experiments (total n≧6 for each diet for both experiments).
NAC directly scavenges ROS and also provide a source of intracellular cysteine for synthesis of glutathione during conditions of oxidative stress. […] Differentiated SH-SY-5Y cells with and without NAC treatment were subjected to HPLC along with 50 μM each of multiple thiol standards (“Standards”) as indicated in FIGS. 18A to 18C.

Assay [4] relates to cortical neurons. Briefly: Intracellular ROS by DCFD fluorescence in cortical neurons. The following applies: folate deprivation for two hours. It is filed as cell-based, mice. On the procedure: Intracellular reactive oxygen species (ROS) were monitored as described in […] et al., 1999 (J. Biol. Chem., 274:30322-30327). Briefly, cells were incubated for 30 minutes with dichloro-fluorescein diacetate (DCFD; acetoxymethyl ester; Molecular Probes, Inc., Eugene, Oreg.), which is used to detect intracellular peroxide levels. Incubation was followed by rinsing of cultures in serum-free medium and immediate capture of images using UV optics. Images were captured under epifluorescent and phase-contrast illumination using a DAGE CCL-72 cooled CCD camera via a Scion LG-3 frame grabber operated by NIH Image (see the Internet at rsb.info.nih.gov/nih-image). Images were then stored as PICT files on a Macintosh Power PC 7100AV for subsequent analysis. At least 100 cells in randomly-selected fields from duplicate cultures derived from multiple experiments were scored for fluorescent intensity using NIH Image analysis software. Representative background areas devoid of cells were similarly analyzed and subtracted from cell values to yield net densitometric values. All fields for each individual assay were illuminated, captured, and processed under identical settings. Corresponding phase-contrast images were obtained. Cell aggregates were excluded from the assays; only individual cells were quantified. Values were exported to Excel for statistical analyses using Student's t test. […]

The mark [5] stands for this setting: folate deprivation for 24 hours.

In the case of `Nc1nc2ncc(CNc3ccc(C(=O)N[C@@H](CCC(=O)O)C(=O)O)cc3)nc2c(=O)[nH]1` [folate, folic acid], the “PHF-1 (phospho-tau) Mean ± SEM” value in assay [1] (+Folate 4 hr) was 40.3 ± 3.9; in assay [1] (+Folate 24 hr), 38.1 ± 3.1; in assay [1] (−Folate 4 hr), 52.0 ± 3.4; in assay [1] (−Folate 24 hr), 39.7 ± 2.6. The “% increase in phospho-tau compared to control” value in assay [1] (+Folate 24 hr) is given as −5.5%; in assay [1] (−Folate 4 hr) it was 29%; in assay [1] (−Folate 24 hr), −1.5%. For the same molecule, in assay [1] (after folate deprivation for 24 hours), the “PHF-1 levels after cultures received medium containing folate” value is “returned to control levels within four hours”. For the same molecule, the “average increase in PHF-1 immunofluorescence” value in assay [1] (folate deficiency, two hours) is given as 3.5 fold; in assay [2], 1.5 fold. Further, the “average increase in phospho-tau” value in assay [1] (setting [5]) worked out at 29%. In assay [1] (following folate deprivation), the “accumulation of phospho-tau after restoration of folate” value is listed as “reversed within two hours”. For the same molecule, the “total tau levels (monoclonal antibody 5E2)” value in assay [1] (two hour deprivation of folate) is listed as “not altered”. The total glutathione levels result in assay [3] (brief (two hour) folate deprivation) is “no significant change”. Further, the “depletion of total glutathione levels” value in assay [3] (setting [5]) is recorded as “approximately 45%”. Also, the figures for the oxidized glutathione in assay [3] (in the presence of folate) and in assay [3] (two hours of folate deprivation) were 4% and 46%, respectively. In addition, the ROS entry in assay [4] is given as “increased reactive oxygen species (ROS)”.

The values above are taken from patent US8173618B2, “Formulations for reducing neuronal degeneration” (University of Massachusetts, priority 2003, dated 2012).
